Laboratory results taken from the supplement of paper PMC10307832.

Columns and labels:
Test in all cases: relative viability (nuclei count vs DMSO), 5 days (fraction); higher = more cells survive
Erlotinib + Alpelisib = compound: C#Cc1cccc(Nc2ncnc3cc(OCCOC)c(OCCOC)cc23)c1 [Erlotinib] + Cc1nc(NC(=O)N2CCC[C@H]2C(N)=O)sc1-c1ccnc(C(C)(C)C(F)(F)F)c1 [Alpelisib] (partner 2 µM)
Method in brief: (§1)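 Lung cancer cell lines in 1536-well plates were dosed by pin tool the day after seeding, either with one drug alone or with a fixed anchor-drug dose plus five library-drug doses (not always all listed) in √10 steps. After 5 days, cells were fixed and their nuclei stained in one step (final 0.05% Triton X-100, 1% formaldehyde, 1 ug/ml Hoechst), then counted on 4× images. Relative viability is the nuclei count in treated wells divided by that in vehicle wells. Values are medians of duplicate plates.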

AT9283 + Trametinib = compound: O=C(Nc1c[nH]nc1-c1nc2ccc(CN3CCOCC3)cc2[nH]1)NC1CC1 [AT9283] + CC(=O)Nc1cccc(-n2c(=O)n(C3CC3)c(=O)c3c(Nc4ccc(I)cc4F)n(C)c(=O)c(C)c32)c1 [Trametinib] (partner 0.02 µM)
Method in brief: as §1

AT9283 + Alpelisib = compound: O=C(Nc1c[nH]nc1-c1nc2ccc(CN3CCOCC3)cc2[nH]1)NC1CC1 [AT9283] + Cc1nc(NC(=O)N2CCC[C@H]2C(N)=O)sc1-c1ccnc(C(C)(C)C(F)(F)F)c1 [Alpelisib] (partner 2 µM)
Method in brief: as §1

Erlotinib + Foretinib = compound: C#Cc1cccc(Nc2ncnc3cc(OCCOC)c(OCCOC)cc23)c1 [Erlotinib] + COc1cc2c(Oc3ccc(NC(=O)C4(C(=O)Nc5ccc(F)cc5)CC4)cc3F)ccnc2cc1OCCCN1CCOCC1 [Foretinib] (partner 0.25 µM)
Method in brief: as §1

Erlotinib + Luminespib = compound: C#Cc1cccc(Nc2ncnc3cc(OCCOC)c(OCCOC)cc23)c1 [Erlotinib] + CCNC(=O)c1noc(-c2cc(C(C)C)c(O)cc2O)c1-c1ccc(CN2CCOCC2)cc1 [Luminespib] (partner 0.01 µM)
Method in brief: as §1

Row | Cell Line | relative viability (Erlotinib + Alpelisib; first compound 0.02 µM) | relative viability (Erlotinib + Alpelisib; first compound 0.2 µM) | relative viability (Erlotinib + Alpelisib; first compound 0.6325 µM) | relative viability (Erlotinib + Alpelisib; first compound 2 µM) | relative viability (AT9283 + Trametinib; first compound 0.003 µM) | relative viability (AT9283 + Trametinib; first compound 0.03 µM) | relative viability (AT9283 + Trametinib; first compound 0.09487 µM) | relative viability (AT9283 + Trametinib; first compound 0.3 µM) | relative viability (AT9283 + Alpelisib; first compound 0.003 µM) | relative viability (AT9283 + Alpelisib; first compound 0.03 µM) | relative viability (AT9283 + Alpelisib; first compound 0.09487 µM) | relative viability (AT9283 + Alpelisib; first compound 0.3 µM) | relative viability (Erlotinib + Foretinib; first compound 0.02 µM) | relative viability (Erlotinib + Foretinib; first compound 0.2 µM) | relative viability (Erlotinib + Foretinib; first compound 0.6325 µM) | relative viability (Erlotinib + Foretinib; first compound 2 µM) | relative viability (Erlotinib + Luminespib; first compound 0.02 µM) | relative viability (Erlotinib + Luminespib; first compound 0.2 µM) | relative viability (Erlotinib + Luminespib; first compound 0.6325 µM) | relative viability (Erlotinib + Luminespib; first compound 2 µM)
1 | HCC-78 | 0.353 | 0.337 | 0.305 | 0.186 | 0.794 | 0.745 | 0.353 | 0.222 | 0.286 | 0.275 | 0.165 | 0.18 | 0.477 | 0.42 | 0.362 | 0.322 | – | – | – | –
2 | HCC-366 | 0.46 | 0.25 | 0.402 | 0.209 | 0.349 | 0.256 | 0.173 | 0.0874 | 0.48 | 0.17 | 0.122 | 0.0346 | 0.867 | 0.936 | 0.976 | 0.941 | – | – | – | –
3 | HCC-827 | 0.3 | 0.171 | 0.172 | 0.148 | 0.492 | 0.437 | 0.257 | 0.204 | 0.96 | 0.856 | 0.349 | 0.212 | 0.263 | 0.158 | 0.154 | 0.135 | 0.238 | 0.218 | 0.211 | 0.182
4 | HOP-62 | – | 1.05 | 1.05 | 0.977 | 0.384 | 0.431 | 0.194 | 0.188 | 1.11 | 0.991 | 0.207 | 0.219 | 1.22 | 1.08 | 1.15 | 0.89 | 0.988 | 0.949 | 0.855 | 0.881
5 | IA-LM | 0.984 | – | 0.7 | 0.789 | – | – | – | – | 0.891 | 0.418 | 0.199 | 0.0959 | 1.31 | 1.12 | 1.19 | 1.03 | – | – | – | –
6 | LC-2-ad | 0.909 | 0.843 | 0.834 | 0.686 | 0.872 | 0.707 | 0.5 | 0.236 | 0.933 | 0.319 | 0.106 | 0.107 | 0.876 | 0.658 | 0.665 | 0.528 | 1.13 | 0.976 | 1.17 | 0.745
7 | LCLC-97TM1 | 0.218 | – | 0.316 | 0.259 | 0.203 | 0.159 | 0.119 | 0.123 | 0.198 | 0.151 | 0.11 | 0.111 | 0.894 | 0.89 | 0.963 | 0.791 | 0.901 | 0.798 | 0.948 | 0.824
8 | LCLC-103H | 0.882 | 0.953 | 0.994 | 0.91 | 0.661 | 0.716 | 0.441 | 0.4 | 0.89 | 1.09 | 1.11 | 0.332 | 0.743 | 0.799 | 0.848 | 0.566 | 0.99 | 0.884 | 1.05 | 0.821
9 | LK-2 | 0.932 | 0.976 | 1.33 | 1.03 | 0.746 | 0.759 | 0.195 | 0.194 | 0.936 | 0.379 | 0.21 | 0.236 | 1.24 | 0.718 | 1.46 | 1.23 | 0.151 | 0.166 | 0.203 | 0.15
